Data from patent publication US20240043404A1 (AbbVie Inc., priority 2009, published 2024).

These molecules were tested on RS4;11 cells (assay: RS4;11 cell viability assay (CellTiter Glo)). Conditions: Homo sapiens, RS4-11, 48 h, 50,000 cells per well, 10% human serum, 48 hours; read-out: RS4; 11 EC50 Values.
Type: cell-based, human
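Further: acute lymphoblastic leukemia line RS4,11, EC50 derived from percentage of viable cells after treatment relative to untreated controls, cell killing taken as a measure of Bcl-2 inhibition.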
Protocol: The acute lymphoblastic leukemia (ALL) cell line RS4;11 was used as the primary human cell line to assess the cellular activity of Bcl-2 selective agents in vitro and their efficacy in vivo.
Cell cytotoxicity EC50 values were assessed using CellTiter Glo (Promega) according to the manufacturer's recommendations. The EC50 values were determined as a percentage of viable cells following treatment compared to the untreated control cells.

Row | EC50 | SMILES
1 | 11.8 nM | CC1(C)CCC(CN2CCN(c3ccc(C(=O)NS(=O)(=O)c4ccc(NC[C@@H]5CC[C@H](O)C5)c([N+](=O)[O-])c4)c(Oc4cnc5[nH]ccc5c4)c3)CC2)=C(c2ccc(Cl)cc2)C1 [Example 159, 4-(4-{[2-(4-chlorophenyl)-4,4-dimethylcyclohex-1-en-1-yl]methyl}piperazin-1-yl)-N-{[4-({[(1R,3S)-3-hydroxycyclopentyl]methyl}amino)-3-nitrophenyl]sulfonyl}-2-(1H-pyrrolo[2,3-b]pyridin-5-yloxy)benzamide]
2 | 83.6 nM | CC1(C)CCC(CN2CCN(c3ccc(C(=O)NS(=O)(=O)c4ccc(N[C@H]5CCCNC5=O)c([N+](=O)[O-])c4)c(Oc4cnc5[nH]ccc5c4)c3)CC2)=C(c2ccc(Cl)cc2)C1 [Example 160, 4-(4-{[2-(4-chlorophenyl)-4,4-dimethylcyclohex-1-en-1-yl]methyl}piperazin-1-yl)-N-[(3-nitro-4-{[(3S)-2-oxopiperidin-3-yl]amino}phenyl)sulfonyl]-2-(1H-pyrrolo[2,3-b]pyridin-5-yloxy)benzamide]
3 | 34.6 nM | CC1(C)CCC(CN2CCN(c3ccc(C(=O)NS(=O)(=O)c4ccc(NCC5CN(C(CF)CF)C5)c([N+](=O)[O-])c4)c(Oc4cnc5[nH]ccc5c4)c3)CC2)=C(c2ccc(Cl)cc2)C1 [Example 161, 4-(4-{[2-(4-chlorophenyl)-4,4-dimethylcyclohex-1-en-1-yl]methyl}piperazin-1-yl)-N-({4-[({1-[2-fluoro-1-(fluoromethyl)ethyl]azetidin-3-yl}methyl)amino]-3-nitrophenyl}sulfonyl)-2-(1H-pyrrolo[2,3-b]pyridin-5-yloxy)benzamide]
4 | 13 nM | CC1(C)CCC(CN2CCN(c3ccc(C(=O)NS(=O)(=O)c4ccc(NCC5CN(C6COC6)C5)c([N+](=O)[O-])c4)c(Oc4cnc5[nH]ccc5c4)c3)CC2)=C(c2ccc(Cl)cc2)C1 [Example 162, 4-(4-{[2-(4-chlorophenyl)-4,4-dimethylcyclohex-1-en-1-yl]methyl}piperazin-1-yl)-N-[(3-nitro-4-{[(1-oxetan-3-ylazetidin-3-yl)methyl]amino}phenyl)sulfonyl]-2-(1H-pyrrolo[2,3-b]pyridin-5-yloxy)benzamide]
5 | 4.32 nM | CC1(C)CCC(CN2CCN(c3ccc(C(=O)NS(=O)(=O)c4ccc(NCC5CCN(C6COC6)CC5)c([N+](=O)[O-])c4)c(Oc4cnc5[nH]ccc5c4)c3)CC2)=C(c2ccc(Cl)cc2)C1 [Example 163, 4-(4-{[2-(4-chlorophenyl)-4,4-dimethylcyclohex-1-en-1-yl]methyl}piperazin-1-yl)-N-[(3-nitro-4-{[(1-oxetan-3-ylpiperidin-4-yl)methyl]amino}phenyl)sulfonyl]-2-(1H-pyrrolo[2,3-b]pyridin-5-yloxy)benzamide]
6 | 14.8 nM | CC1(C)CCC(CN2CCN(c3ccc(C(=O)NS(=O)(=O)c4ccc(NCC5CCN(C6CC6)CC5)c([N+](=O)[O-])c4)c(Oc4cnc5[nH]ccc5c4)c3)CC2)=C(c2ccc(Cl)cc2)C1 [Example 164, 4-(4-{[2-(4-chlorophenyl)-4,4-dimethylcyclohex-1-en-1-yl]methyl}piperazin-1-yl)-N-[(4-{[(1-cyclopropylpiperidin-4-yl)methyl]amino}-3-nitrophenyl)sulfonyl]-2-(1H-pyrrolo[2,3-b]pyridin-5-yloxy)benzamide]
7 | 5.1 nM | CC1(C)CCC(CN2CCN(c3ccc(C(=O)NS(=O)(=O)c4ccc(NCC5CN(CCF)CCO5)c([N+](=O)[O-])c4)c(Oc4cnc5[nH]ccc5c4)c3)CC2)=C(c2ccc(Cl)cc2)C1 (stereo not shown) [Example 165, 4-(4-{[2-(4-chlorophenyl)-4,4-dimethylcyclohex-1-en-1-yl]methyl}piperazin-1-yl)-N-{[4-({[4-(2-fluoroethyl)morpholin-2-yl]methyl}amino)-3-nitrophenyl]sulfonyl}-2-(1H-pyrrolo[2,3-b]pyridin-5-yloxy)benzamide]
8 | 11.8 nM | CC1(C)CCC(CN2CCN(c3ccc(C(=O)NS(=O)(=O)c4ccc(NCC5CN(CC(F)F)CCO5)c([N+](=O)[O-])c4)c(Oc4cnc5[nH]ccc5c4)c3)CC2)=C(c2ccc(Cl)cc2)C1 (stereo not shown) [Example 166, 4-(4-{[2-(4-chlorophenyl)-4,4-dimethylcyclohex-1-en-1-yl]methyl}piperazin-1-yl)-N-{[4-({[4-(2,2-difluoroethyl)morpholin-2-yl]methyl}amino)-3-nitrophenyl]sulfonyl}-2-(1H-pyrrolo[2,3-b]pyridin-5-yloxy)benzamide]

Continued, molecule first:

Row | SMILES | EC50
9 | CC(=O)N1CCCC(CNc2ccc(S(=O)(=O)NC(=O)c3ccc(N4CCN(CC5=C(c6ccc(Cl)cc6)CC(C)(C)CC5)CC4)cc3Oc3cnc4[nH]ccc4c3)cc2[N+](=O)[O-])C1 (stereo not shown) [Example 148, N-[(4-{[(1-acetylpiperidin-3-yl)methyl]amino}-3-nitrophenyl)sulfonyl]-4-(4-{[2-(4-chlorophenyl)-4,4-dimethylcyclohex-1-en-1-yl]methyl}piperazin-1-yl)-2-(1H-pyrrolo[2,3-b]pyridin-5-yloxy)benzamide] | 9.38 nM
10 | CC1(C)CCC(CN2CCN(c3ccc(C(=O)NS(=O)(=O)c4ccc(N[C@@H]5CCN(S(C)(=O)=O)C5)c([N+](=O)[O-])c4)c(Oc4cnc5[nH]ccc5c4)c3)CC2)=C(c2ccc(Cl)cc2)C1 [Example 149, 4-(4-{[2-(4-chlorophenyl)-4,4-dimethylcyclohex-1-en-1-yl]methyl}piperazin-1-yl)-N-[(4-{[(3R)-1-(methylsulfonyl)pyrrolidin-3-yl]amino}-3-nitrophenyl)sulfonyl]-2-(1H-pyrrolo[2,3-b]pyridin-5-yloxy)benzamide] | 13.5 nM
11 | CC1(C)CCCC(CN2CCN(c3ccc(C(=O)NS(=O)(=O)c4ccc(NCC5CCOCC5)c([N+](=O)[O-])c4)c(Oc4cnc5[nH]ccc5c4)c3)CC2)=C1c1ccc(Cl)cc1 [Example 150, 4-(4-{[2-(4-chlorophenyl)-3,3-dimethylcyclohex-1-en-1-yl]methyl}piperazin-1-yl)-N-({3-nitro-4-[(tetrahydro-2H-pyran-4-ylmethyl)amino]phenyl}sulfonyl)-2-(1H-pyrrolo[2,3-b]pyridin-5-yloxy)benzamide] | 51 nM
12 | CC1(C)CCC(CN2CCN(c3ccc(C(=O)NS(=O)(=O)c4ccc(NC5CN(C(CF)CF)C5)c([N+](=O)[O-])c4)c(Oc4cnc5[nH]ccc5c4)c3)CC2)=C(c2ccc(Cl)cc2)C1 [Example 151, 4-(4-{[2-(4-chlorophenyl)-4,4-dimethylcyclohex-1-en-1-yl]methyl}piperazin-1-yl)-N-{[4-({1-[2-fluoro-1-(fluoromethyl)ethyl]azetidin-3-yl}amino)-3-nitrophenyl]sulfonyl}-2-(1H-pyrrolo[2,3-b]pyridin-5-yloxy)benzamide] | 33.7 nM
13 | CC1(C)CCC(CN2CCN(c3ccc(C(=O)NS(=O)(=O)c4ccc(NCC5CCN(S(C)(=O)=O)C5)c([N+](=O)[O-])c4)c(Oc4cnc5[nH]ccc5c4)c3)CC2)=C(c2ccc(Cl)cc2)C1 (stereo not shown) [Example 152, 4-(4-{[2-(4-chlorophenyl)-4,4-dimethylcyclohex-1-en-1-yl]methyl}piperazin-1-yl)-N-{[4-({[1-(methylsulfonyl)pyrrolidin-3-yl]methyl}amino)-3-nitrophenyl]sulfonyl}-2-(1H-pyrrolo[2,3-b]pyridin-5-yloxy)benzamide] | 20.4 nM
14 | CC(=O)N1CCC(CNc2ccc(S(=O)(=O)NC(=O)c3ccc(N4CCN(CC5=C(c6ccc(Cl)cc6)CC(C)(C)CC5)CC4)cc3Oc3cnc4[nH]ccc4c3)cc2[N+](=O)[O-])C1 (stereo not shown) [Example 153, N-[(4-{[(1-acetylpyrrolidin-3-yl)methyl]amino}-3-nitrophenyl)sulfonyl]-4-(4-{[2-(4-chlorophenyl)-4,4-dimethylcyclohex-1-en-1-yl]methyl}piperazin-1-yl)-2-(1H-pyrrolo[2,3-b]pyridin-5-yloxy)benzamide] | 17.2 nM
15 | CC(=O)N1CC[C@@H](Nc2ccc(S(=O)(=O)NC(=O)c3ccc(N4CCN(CC5=C(c6ccc(Cl)cc6)CC(C)(C)CC5)CC4)cc3Oc3cnc4[nH]ccc4c3)cc2[N+](=O)[O-])C1 [Example 154, N-[(4-{[(3R)-1-acetylpyrrolidin-3-yl]amino}-3-nitrophenyl)sulfonyl]-4-(4-{[2-(4-chlorophenyl)-4,4-dimethylcyclohex-1-en-1-yl]methyl}piperazin-1-yl)-2-(1H-pyrrolo[2,3-b]pyridin-5-yloxy)benzamide] | 26.5 nM
16 | COCC(C)(C)CNc1ccc(S(=O)(=O)NC(=O)c2ccc(N3CCN(CC4=C(c5ccc(Cl)cc5)CC(C)(C)CC4)CC3)cc2Oc2cnc3[nH]ccc3c2)cc1[N+](=O)[O-] [Example 155, 4-(4-{[2-(4-chlorophenyl)-4,4-dimethylcyclohex-1-en-1-yl]methyl}piperazin-1-yl)-N-({4-[(3-methoxy-2,2-dimethylpropyl)amino]-3-nitrophenyl}sulfonyl)-2-(1H-pyrrolo[2,3-b]pyridin-5-yloxy)benzamide] | 594 nM
17 | CC1(C)CCC(CN2CCN(c3ccc(C(=O)NS(=O)(=O)c4ccc(NC[C@@H]5CC[C@@H](O)C5)c([N+](=O)[O-])c4)c(Oc4cnc5[nH]ccc5c4)c3)CC2)=C(c2ccc(Cl)cc2)C1 [Example 156, 4-(4-{[2-(4-chlorophenyl)-4,4-dimethylcyclohex-1-en-1-yl]methyl}piperazin-1-yl)-N-{[4-({[(1R,3R)-3-hydroxycyclopentyl]methyl}amino)-3-nitrophenyl]sulfonyl}-2-(1H-pyrrolo[2,3-b]pyridin-5-yloxy)benzamide] | 8.05 nM
18 | CC1(C)CCC(CN2CCN(c3ccc(C(=O)NS(=O)(=O)c4ccc(NC[C@H]5CC[C@H](O)C5)c([N+](=O)[O-])c4)c(Oc4cnc5[nH]ccc5c4)c3)CC2)=C(c2ccc(Cl)cc2)C1 [Example 157, 4-(4-{[2-(4-chlorophenyl)-4,4-dimethylcyclohex-1-en-1-yl]methyl}piperazin-1-yl)-N-{[4-({[(1S,3S)-3-hydroxycyclopentyl]methyl}amino)-3-nitrophenyl]sulfonyl}-2-(1H-pyrrolo[2,3-b]pyridin-5-yloxy)benzamide] | 10.9 nM
19 | CC1(C)CCC(CN2CCN(c3ccc(C(=O)NS(=O)(=O)c4ccc(NC[C@H]5CC[C@@H](O)C5)c([N+](=O)[O-])c4)c(Oc4cnc5[nH]ccc5c4)c3)CC2)=C(c2ccc(Cl)cc2)C1 [Example 158, 4-(4-{[2-(4-chlorophenyl)-4,4-dimethylcyclohex-1-en-1-yl]methyl}piperazin-1-yl)-N-{[4-({[(1S,3R)-3-hydroxycyclopentyl]methyl}amino)-3-nitrophenyl]sulfonyl}-2-(1H-pyrrolo[2,3-b]pyridin-5-yloxy)benzamide] | 17.9 nM
